This is an account of results in ChEMBL document CHEMBL3525916, “Investigation of figopitant and its metabolites in rat tissue by combining whole-body autoradiography with liquid extraction surface analysis mass spectrometry” (Drug Metab Dispos, 2012).

For this data set, the system named is Rattus norvegicus. The data set is described as follows: Retention time in albino Wistar Hannover rat treated with 5 mg/kg, iv of [14C]figopitant. The conditions noted are these: in vivo. Further details: dose 5 mg/kg, route intravenous. The class given is ADME, organism-based.
Compound `CN(CCc1cc(C(F)(F)F)cc(C(F)(F)F)c1)C(=O)[C@H](c1ccccc1)N1CCNCC1` displayed a Retention_time of 14.5 min.
For `CN(CCc1cc(C(F)(F)F)cc(C(F)(F)F)c1)C(=O)[C@@H](NCCN)c1ccccc1`, the Retention_time amounted to 11.9 min.
The result for `CN(CC(O)c1cc(C(F)(F)F)cc(C(F)(F)F)c1)C(=O)[C@H](c1ccccc1)N1CCN(CC2CC2)CC1` (stereo partly drawn) reads 24.2 min.
